Experimental data published in ChEMBL document CHEMBL1201862, “PubChem BioAssay data set” (2004).
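In this assay, cells in 96-well plates receive the compound at five concentrations for 48 hours. Endpoints are linearly interpolated between the surrounding concentrations. GI50 is the concentration that inhibits growth by half.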 Active and inactive are the calls of the source. Rule as the data show it: active = GI50 up to about 1.1 µM and inactive = higher.

Key:
Assay in all cases: inhibition of tumour cell growth, NCI panel, 48 h
OVCAR-4 = system: OVCAR-4
M19-MEL = system: M19-MEL
SR = system: SR
SF-539 = system: SF-539
CAKI-1 = system: CAKI-1
Malme-3M = system: Malme-3M
COLO 205 = system: COLO 205
LXFL 529 = system: LXFL 529
ACHN = system: ACHN
LOX IMVI = system: LOX IMVI
XF498 = system: XF498
MOLT-4 = system: MOLT-4
SNB-19 = system: SNB-19
UO-31 = system: UO-31
A549 = system: A549
SNB-78 = system: SNB-78
SF-268 = system: SF-268
SK-OV-3 = system: SK-OV-3
SK-MEL-28 = system: SK-MEL-28
UACC-62 = system: UACC-62
RPMI-8226 = system: RPMI-8226
SF-295 = system: SF-295
A498 = system: A498
786-0 = system: 786-0
K562 = system: K562
OVCAR-8 = system: OVCAR-8
DMS-114 = system: DMS-114
HT-29 = system: HT-29
SK-MEL-5 = system: SK-MEL-5
CCRF-CEM = system: CCRF-CEM
HL-60 = system: HL-60
SN12C = system: SN12C
NCI-H23 = system: NCI-H23
IGROV-1 = system: IGROV-1
OVCAR-3 = system: OVCAR-3
KM12 = system: KM12
NCI-H522 = system: NCI-H522
HCT-116 = system: HCT-116
U-251 = system: U-251
KM-20L2 = system: KM-20L2
HOP-92 = system: HOP-92
HOP-18 = system: HOP-18
UACC-257 = system: UACC-257
SW-620 = system: SW-620
HOP-62 = system: HOP-62
OVCAR-5 = system: OVCAR-5
TK-10 = system: TK-10
NCI-H226 = system: NCI-H226
NCI-H460 = system: NCI-H460
HCT-15 = system: HCT-15
EKVX = system: EKVX
SNB-75 = system: SNB-75
RXF 393 = system: RXF 393
SK-MEL-2 = system: SK-MEL-2
DLD-1 = system: DLD-1
DMS-273 = system: DMS-273
HCC 2998 = system: HCC 2998
M14 = system: M14

Cc1c2cc[n+](COC(=O)c3ccccc3)cc2c(C)c2c1[nH]c1ccccc12
GI50 (OVCAR-4): 0.587 µM (active)
GI50 (M19-MEL): 0.743 µM (active)
GI50 (SR): 0.212 µM (active)
GI50 (SF-539): 0.416 µM (active)
GI50 (CAKI-1): 1.4 µM (inactive)
GI50 (Malme-3M): 1.46 µM (inactive)
GI50 (COLO 205): 0.43 µM (active)
GI50 (LXFL 529): 0.506 µM (active)
GI50 (ACHN): 0.532 µM (active)
GI50 (LOX IMVI): 0.436 µM (active)
GI50 (XF498): 1.62 µM (inactive)
GI50 (MOLT-4): 0.255 µM (active)
GI50 (SNB-19): 0.778 µM (active)
GI50 (UO-31): 2.03 µM (inactive)
GI50 (A549): 0.299 µM (active)
GI50 (SNB-78): 1.32 µM (inactive)
GI50 (SF-268): 0.571 µM (active)
GI50 (SK-OV-3): 1.39 µM (inactive)
GI50 (SK-MEL-28): 1.64 µM (inactive)
GI50 (UACC-62): 1.5 µM (inactive)
GI50 (RPMI-8226): 0.569 µM (active)
GI50 (SF-295): 0.491 µM (active)
GI50 (A498): 1.23 µM (inactive)
GI50 (786-0): 0.778 µM (active)
GI50 (K562): 0.388 µM (active)
GI50 (OVCAR-8): 0.551 µM (active)
GI50 (DMS-114): 0.75 µM (active)
GI50 (HT-29): 0.453 µM (active)
GI50 (SK-MEL-5): 1.36 µM (inactive)
GI50 (CCRF-CEM): 0.434 µM (active)
GI50 (HL-60): 1.1 µM (active)
GI50 (SN12C): 0.533 µM (active)
GI50 (NCI-H23): 0.849 µM (active)
GI50 (IGROV-1): 0.299 µM (active)
GI50 (OVCAR-3): 1.37 µM (inactive)
GI50 (KM12): 0.533 µM (active)
GI50 (NCI-H522): 1.08 µM (active)
GI50 (HCT-116): 0.298 µM (active)
GI50 (U-251): 0.515 µM (active)
GI50 (KM-20L2): 0.641 µM (active)
GI50 (HOP-92): 0.682 µM (active)
GI50 (HOP-18): < 0.01 µM (active)
GI50 (UACC-257): 1.52 µM (inactive)
GI50 (SW-620): 0.383 µM (active)
GI50 (HOP-62): 1.31 µM (inactive)
GI50 (OVCAR-5): 0.824 µM (active)
GI50 (TK-10): 1.58 µM (inactive)

Cc1cc2c(C)n(Cc3ccccc3Cl)nc2c(C(=O)O)c1C
GI50 (M19-MEL): > 100 µM (inactive)
GI50 (SR): > 100 µM (inactive)
GI50 (SF-539): > 100 µM (inactive)
GI50 (Malme-3M): > 100 µM (inactive)
GI50 (COLO 205): > 10 µM (inactive)
GI50 (LXFL 529): > 100 µM (inactive)
GI50 (ACHN): > 100 µM (inactive)
GI50 (LOX IMVI): > 100 µM (inactive)
GI50 (XF498): > 100 µM (inactive)
GI50 (MOLT-4): > 100 µM (inactive)
GI50 (SNB-19): > 100 µM (inactive)
GI50 (UO-31): > 100 µM (inactive)
GI50 (NCI-H226): > 100 µM (inactive)
GI50 (A549): > 100 µM (inactive)
GI50 (SNB-78): > 100 µM (inactive)
GI50 (SF-268): > 100 µM (inactive)
GI50 (NCI-H460): > 100 µM (inactive)
GI50 (SK-OV-3): > 100 µM (inactive)
GI50 (SK-MEL-28): > 100 µM (inactive)
GI50 (UACC-62): > 100 µM (inactive)
GI50 (RPMI-8226): > 100 µM (inactive)
GI50 (SF-295): > 100 µM (inactive)
GI50 (HCT-15): > 100 µM
GI50 (EKVX): > 100 µM (inactive)
GI50 (786-0): > 100 µM (inactive)
GI50 (OVCAR-8): > 100 µM (inactive)
GI50 (SNB-75): > 100 µM (inactive)
GI50 (HT-29): > 100 µM (inactive)
GI50 (CCRF-CEM): > 100 µM (inactive)
GI50 (RXF 393): > 100 µM (inactive)
GI50 (HL-60): > 100 µM (inactive)
GI50 (SN12C): > 100 µM (inactive)
GI50 (NCI-H23): > 100 µM (inactive)
GI50 (IGROV-1): > 100 µM (inactive)
GI50 (SK-MEL-2): > 100 µM (inactive)
GI50 (DLD-1): > 100 µM (inactive)
GI50 (OVCAR-3): > 100 µM (inactive)
GI50 (HCT-116): > 100 µM (inactive)
GI50 (U-251): > 100 µM (inactive)
GI50 (KM-20L2): > 100 µM (inactive)
GI50 (DMS-273): > 100 µM (inactive)
GI50 (HOP-92): > 100 µM (inactive)
GI50 (HOP-18): > 100 µM (inactive)
GI50 (UACC-257): > 100 µM (inactive)
GI50 (SW-620): > 100 µM (inactive)
GI50 (HCC 2998): > 100 µM (inactive)
GI50 (HOP-62): > 100 µM (inactive)
GI50 (OVCAR-5): > 100 µM (inactive)
GI50 (TK-10): > 100 µM (inactive)

CCOC(=O)C1(C(=O)OCC)CC=C(C)CC12C(=O)Nc1ccccc12 (centres undefined)
GI50 (OVCAR-4): > 100 µM (inactive)
GI50 (M19-MEL): > 100 µM (inactive)
GI50 (SF-539): > 100 µM (inactive)
GI50 (CAKI-1): > 100 µM (inactive)
GI50 (Malme-3M): > 100 µM (inactive)
GI50 (COLO 205): > 100 µM (inactive)
GI50 (LXFL 529): > 100 µM (inactive)
GI50 (ACHN): > 100 µM (inactive)
GI50 (LOX IMVI): > 100 µM (inactive)
GI50 (XF498): > 100 µM (inactive)
GI50 (MOLT-4): > 100 µM (inactive)
GI50 (SNB-19): > 100 µM (inactive)
GI50 (NCI-H226): > 100 µM (inactive)
GI50 (A549): > 100 µM (inactive)
GI50 (SF-268): > 100 µM (inactive)
GI50 (NCI-H460): > 100 µM (inactive)
GI50 (SK-OV-3): > 100 µM (inactive)
GI50 (SK-MEL-28): > 100 µM (inactive)
GI50 (UACC-62): > 100 µM (inactive)
GI50 (RPMI-8226): > 100 µM (inactive)
GI50 (SF-295): > 100 µM (inactive)
GI50 (HCT-15): > 100 µM
GI50 (EKVX): > 100 µM (inactive)
GI50 (A498): > 100 µM (inactive)
GI50 (786-0): > 100 µM (inactive)
GI50 (K562): > 100 µM (inactive)
GI50 (OVCAR-8): > 100 µM (inactive)
GI50 (SNB-75): > 100 µM (inactive)
GI50 (DMS-114): > 100 µM (inactive)
GI50 (HT-29): > 100 µM (inactive)
GI50 (SK-MEL-5): > 100 µM (inactive)
GI50 (CCRF-CEM): > 100 µM (inactive)
GI50 (HL-60): > 100 µM (inactive)
GI50 (SN12C): > 100 µM (inactive)
GI50 (NCI-H23): > 100 µM (inactive)
GI50 (IGROV-1): > 100 µM (inactive)
GI50 (SK-MEL-2): > 100 µM (inactive)
GI50 (DLD-1): > 100 µM (inactive)
GI50 (OVCAR-3): > 100 µM (inactive)
GI50 (KM12): > 100 µM (inactive)
GI50 (NCI-H522): > 100 µM (inactive)
GI50 (HCT-116): > 100 µM (inactive)
GI50 (U-251): > 100 µM (inactive)
GI50 (KM-20L2): > 100 µM (inactive)
GI50 (DMS-273): > 100 µM (inactive)
GI50 (HOP-92): > 100 µM (inactive)
GI50 (HOP-18): > 100 µM (inactive)
GI50 (M14): > 100 µM (inactive)
GI50 (SW-620): > 100 µM (inactive)
GI50 (HCC 2998): > 100 µM (inactive)
GI50 (HOP-62): > 100 µM (inactive)
GI50 (OVCAR-5): > 100 µM (inactive)
GI50 (TK-10): > 100 µM (inactive)
